Legend:
MCF-7 cells = assay: MTT cytotoxicity assay on MCF-7 cells; type: cell-based; details: Homo sapiens, MCF7; for viability at 1.25 µM: MCF-7, 1.25 µM; for viability at 1.25 µM / viability at 2.5 µM / viability at 5 µM / viability at 10 µM / viability at 20 µM / viability at 40 µM / viability at 80 µM / viability at 160 µM: Table S2; for viability at 2.5 µM: MCF-7, 2.5 µM; for viability at 5 µM: MCF-7, 5 µM; for viability at 10 µM: MCF-7, 10 µM; for viability at 20 µM: MCF-7, 20 µM; for viability at 40 µM: MCF-7, 40 µM; for viability at 80 µM: MCF-7, 80 µM; for viability at 160 µM: MCF-7, 160 µM; for IC50: MTT, 24 h treatment, mean of three experiments ± SEM, read-out: IC50 (µM) MCF-7
Method: (§1) Cytotoxic activity of the synthesized compounds was evaluated against HepG-2 and MCF-7 cancer cell lines using the MTT assay. The tested cell lines were obtained from the American Type Culture Collection (ATCC, […], USA) through the Tissue Culture Unit, The Egyptian Organization for Biological Products and Vaccines (Vacsera, Giza, Egypt). Indirubin, chemicals, and solvents were purchased from Sigma-Aldrich (St. Louis, MO, USA). The cells were grown on RPMI-1640 medium supplemented with 10% inactivated fetal calf serum and 50 µg/mL gentamycin. The cells were maintained at 37 °C in a humidified atmosphere with 5% CO2 and were sub-cultured two to three times per week. For antitumor assays, the tumor cell lines were suspended in the medium at concentration 5 × 10^4 cell/well in Corning® 96-well tissue culture plates (Corning, Corning, NY, USA), then incubated for 24 h. The tested molecules were then added to 96-well plates (six replicates) to achieve six concentrations for each compound. Six vehicle controls with media or 0.5% DMSO were run for each 96-well plate as a control. After incubating for 24 h, the numbers of viable cells were determined by the MTT test. Briefly, the media was removed from the 96 well plate and replaced with 100 µL of fresh culture RPMI 1640 medium without phenol red then 10 µL of the 12 mM MTT stock solution (5 mg of MTT in 1 mL of PBS) to each well including the untreated controls. The 96-well plates were then incubated at 37 °C and 5% CO2 for 4 h. An 85 µL aliquot of the media was removed from the wells, and 50 µL of DMSO was added to each well, mixed thoroughly with the pipette, and incubated at 37 °C for 10 min. Then, the optical density was measured at 590 nm with the microplate reader (SunRise, TECAN, Inc., Morrisville, NC, USA) to determine the number of viable cells, and the percentage of viability was calculated as […], where ODt is the mean optical density of wells treated with the tested sample and ODc is the mean optical density of untreated cells. The relation between surviving cells and drug concentration was plotted to obtain the survival curve of each tumor cell line after treatment with the specified compound. […] Each concentration was repeated four times.

HepG-2 cells = assay: MTT cytotoxicity assay on HepG-2 cells; type: cell-based, human; details: Homo sapiens, HepG2; for viability at 1.25 µM: HepG-2, 1.25 µM; for viability at 1.25 µM / viability at 2.5 µM / viability at 5 µM / viability at 10 µM / viability at 20 µM / viability at 40 µM / viability at 80 µM / viability at 160 µM: Table S1; for viability at 2.5 µM: HepG-2, 2.5 µM; for viability at 5 µM: HepG-2, 5 µM; for viability at 10 µM: HepG-2, 10 µM; for viability at 20 µM: HepG-2, 20 µM; for viability at 40 µM: HepG-2, 40 µM; for viability at 80 µM: HepG-2, 80 µM; for viability at 160 µM: HepG-2, 160 µM; for IC50: MTT, 24 h treatment, mean of three experiments ± SEM
Method: as §1

VEGFR-2 = molecular target: T1, VEGFR-2 (Homo sapiens, UniProt P35968); assay: Kinase-Glo Plus luminescence kinase inhibition assay, VEGFR-2; type: biochemical; details: 10 µM ATP, 30 °C, 40 min; mean ± SEM
T1 construct: purchased BPS Bioscience 40301
Method: (§2) The enzyme inhibition assay for the tested molecules was performed at BPS Bioscience Corporation, San Diego, CA, USA. The following materials served as the enzyme sources, Poly (Glu, Tyr) sodium salt (4:1, Glu:Tyr) (Sigma#P7244) served as the standardized substrate, and the Kinase-Glo Plus Luminescence kinase assay kit (Promega # V3772) was used. […] Glo Plus luminescence kinase assay kits. The assays were performed using Kinase-Glo Plus luminescence (Promega Corporation, Madison, WI, USA).
(§3) The tested molecules 9, 20, and indurbin were diluted to 100 µL in DMSO (10%), and 5 µL of the solution was added to a 50-µL enzyme reaction until the final concentration of DMSO was 1% in all of reactions. The enzymatic reactions were conducted at 30 °C for 40 min. The reaction mixture contained enzyme substrate and respective kinases. After the enzymatic reaction, 50 µL of enzyme-Glo Plus luminescence […] assay solution (Promega) was added to each reaction, and the plate was incubated for 5 min at room temperature. The luminescence signal was measured using a BioTek Synergy 2 microplate reader. The luminescence data were analyzed using the computer software GraphPad Prism. The difference between luminescence intensities in the absence of enzyme (Lut) and in the presence of enzyme (Luc) was defined as 100% activity (Lut − Luc). […] The IC50 value was determined using GraphPad Prism software. […]
(§4) Glo Plus luminescence kinase assay kits were used in these assays. […] The assay measures kinase activity by quantitating the amount of ATP remaining in the solution following kinase reaction. […] After the enzymatic reaction, 50 µL of Kinase-Glo Plus Luminescence kinase assay solution (Promega) was added to each reaction, and the plate was incubated for 5 min at room temperature. The luminescence signal was measured using a BioTek Synergy 2 microplate reader. […] The luminescence data were analyzed using the Graphpad Prism software.

CDK-4 = molecular target: T2, CDK-4 (Homo sapiens, UniProt P11802); assay: Kinase-Glo Plus luminescence kinase inhibition assay, CDK-4; type: biochemical; details: 10 µM ATP, 30 °C, 40 min; mean ± SEM
T2 construct: purchased BPS Bioscience 79674
Method: as §2, §3, §4

EGFR = molecular target: T3, EGFR (Homo sapiens, UniProt P00533); assay: Kinase-Glo Plus luminescence kinase inhibition assay, EGFR; type: biochemical; details: 10 µM ATP, 30 °C, 40 min; mean ± SEM
T3 construct: purchased BPS Bioscience 40721
Method: as §2, §3, §4

CDK-2 = molecular target: T4, CDK-2 (Homo sapiens, UniProt P24941); assay: Kinase-Glo Plus luminescence kinase inhibition assay, CDK-2; type: biochemical; details: 10 µM ATP, 30 °C, 40 min; mean ± SEM
T4 construct: purchased BPS Bioscience 41101
Method: as §2
The tested molecules 9, 20, and indurbin were diluted to 100 µL in DMSO (10%), and 5 µL of the solution was added to a 50-µL enzyme reaction until the final concentration of DMSO was 1% in all of reactions. The enzymatic reactions were conducted at 30 °C for 40 min. The reaction mixture contained enzyme substrate and respective kinases. After the enzymatic reaction, 50 µL of enzyme-Glo Plus luminescence […] assay solution (Promega) was added to each reaction, and the plate was incubated for 5 min at room temperature. The luminescence signal was measured using a BioTek Synergy 2 microplate reader. The luminescence data were analyzed using the computer software GraphPad Prism. The difference between luminescence intensities in the absence of enzyme (Lut) and in the presence of enzyme (Luc) was defined as 100% activity (Lut − Luc). The values of enzyme activity percentages versus five concentrations of the small molecule were then plotted using a non-linear regression analysis of the sigmoidal dose–response curve. The IC50 value was determined using GraphPad Prism software. All experiments were repeated three times (Table S3).
Glo Plus luminescence kinase assay kits were used in these assays. The assay was done at Bioscience Laboratory BPS, California, USA. The assay measures kinase activity by quantitating the amount of ATP remaining in the solution following kinase reaction. The luminescent signal from the assay was correlated with the amount of ATP present and inversely correlated with kinase activity. […] All of the enzymatic reactions were conducted at 30 °C for 40 min. The reaction mixture contained 40 mM Tris, pH 7.4, 10 mM MgCl2, 0.1 mg/mL BSA, 1 mM DTT, 10 µM ATP, Kinase substrate, and VEGFR-2, EFGR, CDK-2 and CDK-4 enzymes. After the enzymatic reaction, 50 µL of Kinase-Glo Plus Luminescence kinase assay solution (Promega) was added to each reaction, and the plate was incubated for 5 min at room temperature. The luminescence signal was measured using a BioTek Synergy 2 microplate reader. Kinase activity assays were performed in triplicate for each concentration. The luminescence data were analyzed using the Graphpad Prism software.

HepG2 cells = test system: HepG2 cells; parameters: method as in PMID 34208562; details: relative to sunitinib; cited from earlier work

T1 sequence (P35968 20-1356): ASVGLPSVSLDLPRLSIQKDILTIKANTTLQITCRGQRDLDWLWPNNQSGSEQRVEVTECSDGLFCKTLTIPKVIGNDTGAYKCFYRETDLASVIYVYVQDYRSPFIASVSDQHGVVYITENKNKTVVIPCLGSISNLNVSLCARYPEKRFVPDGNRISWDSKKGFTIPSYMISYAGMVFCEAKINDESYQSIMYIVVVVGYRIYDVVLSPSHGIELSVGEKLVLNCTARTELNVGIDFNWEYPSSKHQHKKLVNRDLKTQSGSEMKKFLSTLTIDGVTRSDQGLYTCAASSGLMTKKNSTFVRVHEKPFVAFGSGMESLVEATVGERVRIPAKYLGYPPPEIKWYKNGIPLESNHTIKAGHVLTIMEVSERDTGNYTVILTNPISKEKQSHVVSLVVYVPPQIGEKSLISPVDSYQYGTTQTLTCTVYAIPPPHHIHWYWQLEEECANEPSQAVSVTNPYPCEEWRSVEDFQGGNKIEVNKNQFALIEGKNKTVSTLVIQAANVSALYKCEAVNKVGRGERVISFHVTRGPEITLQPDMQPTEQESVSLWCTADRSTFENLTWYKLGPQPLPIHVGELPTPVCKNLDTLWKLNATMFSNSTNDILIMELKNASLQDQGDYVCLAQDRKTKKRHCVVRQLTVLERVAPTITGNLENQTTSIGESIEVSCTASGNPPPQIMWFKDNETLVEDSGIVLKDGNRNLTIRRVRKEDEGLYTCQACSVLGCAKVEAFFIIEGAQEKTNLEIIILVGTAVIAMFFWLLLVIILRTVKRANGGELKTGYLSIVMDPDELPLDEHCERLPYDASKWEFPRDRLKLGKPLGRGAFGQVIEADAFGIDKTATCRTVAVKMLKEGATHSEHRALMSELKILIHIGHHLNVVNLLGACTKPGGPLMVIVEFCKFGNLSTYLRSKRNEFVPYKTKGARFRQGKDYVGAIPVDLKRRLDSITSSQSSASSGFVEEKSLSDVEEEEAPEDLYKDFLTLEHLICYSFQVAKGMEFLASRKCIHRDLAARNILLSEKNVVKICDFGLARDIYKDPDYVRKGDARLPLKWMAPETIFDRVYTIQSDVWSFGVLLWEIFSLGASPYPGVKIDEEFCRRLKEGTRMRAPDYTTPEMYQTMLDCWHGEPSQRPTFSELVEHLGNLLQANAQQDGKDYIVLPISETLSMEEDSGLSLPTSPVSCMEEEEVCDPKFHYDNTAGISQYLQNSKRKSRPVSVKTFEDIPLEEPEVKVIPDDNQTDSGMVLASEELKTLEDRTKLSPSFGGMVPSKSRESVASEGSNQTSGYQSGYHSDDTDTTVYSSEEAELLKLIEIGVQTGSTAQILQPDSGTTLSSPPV
T2 sequence (P11802 whole entry): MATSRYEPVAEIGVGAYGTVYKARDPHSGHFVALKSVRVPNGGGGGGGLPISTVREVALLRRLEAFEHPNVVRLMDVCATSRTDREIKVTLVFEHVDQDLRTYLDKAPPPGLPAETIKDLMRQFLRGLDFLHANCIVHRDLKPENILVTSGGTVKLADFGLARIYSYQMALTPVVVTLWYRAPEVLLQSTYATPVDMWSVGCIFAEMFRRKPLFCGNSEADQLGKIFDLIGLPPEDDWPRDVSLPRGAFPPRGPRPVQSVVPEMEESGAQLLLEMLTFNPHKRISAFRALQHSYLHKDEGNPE
T2 sequence (P30281 whole entry partner): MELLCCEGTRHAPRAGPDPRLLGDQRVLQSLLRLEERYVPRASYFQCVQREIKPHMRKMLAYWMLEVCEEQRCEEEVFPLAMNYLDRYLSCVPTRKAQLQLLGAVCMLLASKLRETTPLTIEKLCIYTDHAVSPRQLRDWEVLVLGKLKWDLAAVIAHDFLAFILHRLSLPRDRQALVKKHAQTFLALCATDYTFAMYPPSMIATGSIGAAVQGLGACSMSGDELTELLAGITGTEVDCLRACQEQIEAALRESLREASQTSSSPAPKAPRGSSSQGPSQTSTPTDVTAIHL
T3 sequence (P00533 25-1210): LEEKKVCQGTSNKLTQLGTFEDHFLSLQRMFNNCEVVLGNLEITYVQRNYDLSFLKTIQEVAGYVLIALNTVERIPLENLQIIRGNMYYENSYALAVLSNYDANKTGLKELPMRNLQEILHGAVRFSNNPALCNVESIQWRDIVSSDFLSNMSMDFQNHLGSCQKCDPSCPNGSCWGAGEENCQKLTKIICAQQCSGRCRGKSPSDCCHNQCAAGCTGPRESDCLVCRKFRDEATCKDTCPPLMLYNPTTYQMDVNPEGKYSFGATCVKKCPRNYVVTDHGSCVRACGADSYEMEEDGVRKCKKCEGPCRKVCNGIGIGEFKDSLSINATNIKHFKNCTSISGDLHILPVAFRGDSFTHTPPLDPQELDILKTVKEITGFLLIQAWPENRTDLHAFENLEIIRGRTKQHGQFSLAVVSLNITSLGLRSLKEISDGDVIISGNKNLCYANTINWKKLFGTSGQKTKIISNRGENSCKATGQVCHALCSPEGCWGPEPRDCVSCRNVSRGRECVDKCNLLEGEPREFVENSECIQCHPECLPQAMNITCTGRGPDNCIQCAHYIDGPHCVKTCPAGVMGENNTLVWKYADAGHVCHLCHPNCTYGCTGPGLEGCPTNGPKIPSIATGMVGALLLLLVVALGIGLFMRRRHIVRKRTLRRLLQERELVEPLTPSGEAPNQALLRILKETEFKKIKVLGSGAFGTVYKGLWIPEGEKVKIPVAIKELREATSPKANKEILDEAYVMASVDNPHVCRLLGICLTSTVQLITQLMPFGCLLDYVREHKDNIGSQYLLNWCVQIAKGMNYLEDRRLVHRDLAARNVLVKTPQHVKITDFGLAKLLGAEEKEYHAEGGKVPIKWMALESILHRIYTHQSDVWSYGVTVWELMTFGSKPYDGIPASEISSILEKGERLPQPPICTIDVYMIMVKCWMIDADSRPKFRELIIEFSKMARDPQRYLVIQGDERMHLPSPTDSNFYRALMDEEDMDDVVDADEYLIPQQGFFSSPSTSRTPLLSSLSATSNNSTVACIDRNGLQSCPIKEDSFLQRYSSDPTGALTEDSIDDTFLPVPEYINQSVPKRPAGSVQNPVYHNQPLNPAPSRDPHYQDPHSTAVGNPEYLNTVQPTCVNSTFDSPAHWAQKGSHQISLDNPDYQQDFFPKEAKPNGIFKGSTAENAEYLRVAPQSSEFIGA

Structure (SMILES) | viability at 1.25 µM (MCF-7 cells) [%] | viability at 2.5 µM (MCF-7 cells) [%] | viability at 5 µM (MCF-7 cells) [%] | viability at 10 µM (MCF-7 cells) [%] | viability at 20 µM (MCF-7 cells) [%] | viability at 40 µM (MCF-7 cells) [%] | viability at 80 µM (MCF-7 cells) [%] | viability at 160 µM (MCF-7 cells) [%] | IC50 (MCF-7 cells) [µM] | viability at 1.25 µM (HepG-2 cells) [%] | viability at 2.5 µM (HepG-2 cells) [%] | viability at 5 µM (HepG-2 cells) [%] | viability at 10 µM (HepG-2 cells) [%] | viability at 20 µM (HepG-2 cells) [%] | viability at 40 µM (HepG-2 cells) [%] | viability at 80 µM (HepG-2 cells) [%] | viability at 160 µM (HepG-2 cells) [%] | IC50 (HepG-2 cells) [µM] | further results
Cc1ccc2c(c1)C(=Nc1ccc(-c3nc4ccccc4c(=O)[nH]3)cc1)C(=O)N2 [Compound 23, 2-[4-(5-Methyl-2-oxo-1,2-dihydro-indol-3-ylideneamino)-phenyl]-3H-quinazolin-4-one] | 101 ± 7.9 | 91.5 ± 6.5 | 78.8 ± 6.4 | 65.8 ± 5.6 | 40.9 ± 4.6 | 26.9 ± 3 | 12 ± 1.3 | 12 ± 1.6 | 15.3 ± 0.23 | 81.5 ± 7.5 | 75.3 ± 6.8 | 64.8 ± 6 | 50.2 ± 4.4 | 39.1 ± 3.6 | 28.7 ± 2.6 | 9.5 ± 0.6 | 4.5 ± 0.3 | 38.4 ± 2.71 | –
COc1ccc2c(c1)C(=Nc1ccc(-c3nc4ccccc4c(=O)[nH]3)cc1)C(=O)N2 [Compound 24, 2-[4-(5-Methoxy-2-oxo-1,2-dihydro-indol-3-ylideneamino)-phenyl]-3H-quinazolin-4-one] | 104 ± 8.4 | 97.9 ± 7.7 | 90.8 ± 7 | 80 ± 6.9 | 61.3 ± 4.7 | 29.6 ± 2.6 | 11.1 ± 1.4 | 5.92 ± 0.5 | 18.5 ± 0.96 | 99.4 ± 8.2 | 95.5 ± 7.3 | 88.5 ± 7 | 79.6 ± 6.9 | 62.1 ± 5.7 | 49.5 ± 3.6 | 23.9 ± 2.4 | 10.4 ± 1.1 | 32.7 ± 2.93 | –
O=C1Nc2ccccc2/C1=C1/Nc2ccccc2C1=O [Ind, Indirubin, reference compound] | – | – | – | – | – | – | – | – | 6.12 ± 0.35 | – | – | – | – | – | – | – | – | 6.92 ± 0.65 | IC50 (VEGFR-2): 126 ± 20 nM; IC50 (CDK-4): 23.6 ± 2.15 nM; IC50 (EGFR): 175 ± 18.3 nM; IC50 (CDK-2): 45.6 ± 2.24 nM
Cc1cc(C)c(/C=C2\C(=O)Nc3ccccc32)[nH]1 [Semaxanib] | – | – | – | – | – | – | – | – | – | – | – | – | – | – | – | – | – | – | fold more cytotoxic activity than sunitinib (HepG2 cells): 3 fold
